Results from patent US20110230476A1, “PI3 KINASE INHIBITORS AND USES THEREOF” (AVILA THERAPEUTICS, INC., priority 2009, published 2011).
Entries after “also recorded” stand apart in the source; their conditions may differ.

Experiments:
PI3Kα [1] = target: T1, PI3Kα (Homo sapiens, UniProt P42336); experiment: Mass spectrometry of intact PI3Kα (Johns Hopkins), 3 hr incubation; assay type: binding; parameters: Johns Hopkins; settings: 10× fold excess of compound, MALDI
Description: (§1) Mass Spectrometry for PI3K
Intact PI3Kα (Johns Hopkins) was incubated for 3 hr at a 10× fold excess of II-a-45 or II-a-49 to protein. Aliquots (3 μL) of the samples were diluted with 10 μL of 0.1% TFA prior to micro C4 ZipTipping directly onto the MALDI target using Sinapinic acid as the desorption matrix (10 mg/ml in 0.1% TFA:Acetonitrile 50:50).
Target sequence in this assay (P42336 whole entry): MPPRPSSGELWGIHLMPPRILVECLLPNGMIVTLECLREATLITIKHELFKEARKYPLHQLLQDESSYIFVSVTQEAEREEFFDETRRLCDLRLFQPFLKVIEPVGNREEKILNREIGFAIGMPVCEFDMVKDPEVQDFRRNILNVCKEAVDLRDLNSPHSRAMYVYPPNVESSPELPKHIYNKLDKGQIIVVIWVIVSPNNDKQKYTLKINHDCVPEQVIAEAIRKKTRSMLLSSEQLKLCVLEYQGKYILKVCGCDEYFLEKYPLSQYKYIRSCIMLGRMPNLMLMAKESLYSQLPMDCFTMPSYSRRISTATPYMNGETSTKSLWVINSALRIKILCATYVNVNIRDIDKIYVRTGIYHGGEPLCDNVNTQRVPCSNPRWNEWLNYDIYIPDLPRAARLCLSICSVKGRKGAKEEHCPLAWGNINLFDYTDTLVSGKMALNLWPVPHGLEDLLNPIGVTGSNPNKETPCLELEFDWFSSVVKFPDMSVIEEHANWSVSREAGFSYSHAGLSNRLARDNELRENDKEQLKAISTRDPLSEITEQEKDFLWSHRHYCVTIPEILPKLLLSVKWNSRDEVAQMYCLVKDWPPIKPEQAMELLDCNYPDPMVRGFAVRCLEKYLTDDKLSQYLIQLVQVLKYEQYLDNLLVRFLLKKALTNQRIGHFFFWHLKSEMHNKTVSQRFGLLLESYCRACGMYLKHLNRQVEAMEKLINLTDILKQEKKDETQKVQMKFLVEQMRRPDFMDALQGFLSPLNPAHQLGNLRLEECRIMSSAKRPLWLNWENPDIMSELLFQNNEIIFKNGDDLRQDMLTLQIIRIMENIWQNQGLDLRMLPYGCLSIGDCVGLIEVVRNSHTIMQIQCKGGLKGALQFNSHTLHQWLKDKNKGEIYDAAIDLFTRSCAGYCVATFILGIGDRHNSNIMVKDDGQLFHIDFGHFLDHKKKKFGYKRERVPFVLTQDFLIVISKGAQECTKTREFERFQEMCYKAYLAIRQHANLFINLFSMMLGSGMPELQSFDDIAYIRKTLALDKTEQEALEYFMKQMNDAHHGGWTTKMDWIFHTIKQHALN
Target sequence in this assay (P27986 322-600 partner limits assumed): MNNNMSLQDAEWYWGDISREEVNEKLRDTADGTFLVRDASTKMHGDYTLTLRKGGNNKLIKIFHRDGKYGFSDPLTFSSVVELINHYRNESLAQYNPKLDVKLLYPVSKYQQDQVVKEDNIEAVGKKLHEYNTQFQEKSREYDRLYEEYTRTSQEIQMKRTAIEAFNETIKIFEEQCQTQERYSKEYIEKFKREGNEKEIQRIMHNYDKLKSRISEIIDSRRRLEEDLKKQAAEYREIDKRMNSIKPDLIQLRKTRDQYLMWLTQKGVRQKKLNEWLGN

PI3K = PI3K HCT116 cellular assay (Western blot); assay type: cell-based; settings: Homo sapiens, HCT-116, HCT116 colon cancer cells, 1 hour incubation, read-out: PI3K Inhibition
Description: PI3K HCT116 Cellular Assay
Selected compounds were assayed in HCT116 colon cancer cells. […] Cells were then washed with PBS, lysed and the protein lysates were then recovered and analyzed by Western blot.

PI3Kα (p110α/p85α) = target: T2, PI3Kα (p110α/p85α) (Homo sapiens, UniProt P42336); experiment: HTRF assay, potency against active PI3Kα; assay type: biochemical; settings: for IC50: HTRF, [ATP]=50 μM, [di-C8-PIP2]=10 μM, 30 min pre-incubation, read-out: PI3Kα Inhibition
T2 construct: purchased BPS Bioscience (San Diego, Calif.) or Millipore (Billerica, Mass.)
Procedure, shortened: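 Active p110/p85α lipid kinase reactions were started with ATP and run 30-60 minutes at 25 °C, then stopped and developed with HTRF detection mix. HTRF ratio converted to % inhibition against ±enzyme controls; IC50 from log[inhibitor] vs response, variable slope.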

PI3Kγ (p120γ) = target: T3, PI3Kγ (p120γ) (Homo sapiens, UniProt P48736); experiment: HTRF assay, potency against active PI3Kγ; assay type: biochemical; settings: [ATP]=50 μM, [di-C8-PIP2]=10 μM, 30 min pre-incubation, read-out: PI3Kγ Inhibition
T3 construct: purchased BPS Bioscience (San Diego, Calif.) or Millipore (Billerica, Mass.)
Procedure, shortened: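 End-point competition HTRF: enzyme (p110β/p85α 0.75 nM; p120γ 2-2.5 nM) with 10 μM di-C8-PIP2 pre-incubated 30 min at 25° C with compound, then 50 μM ATP added for 30-60 min at 25° C. Stopped, detected after 1 and 18 h; IC50 from variable-slope fit.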

Phospho-Akt(Ser473) = experiment: Dose response in SKOV3 cells as determined by in-cell Western; assay type: cell-based; settings: Homo sapiens, SK-OV-3; SKOV3 cells, 1 hr; read-out: pAKT Inhibition in cell Western
Procedure, shortened: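 SKOV3 cells treated with compound for 1 hr, then formaldehyde-fixed, permeabilised and stained overnight for phospho-Akt(Ser473) with anti-tubulin as a reference. Infrared secondary antibodies read at 680 and 800 nm channels by in-cell Western imaging.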

PI3Kβ (p110β/p85α) = target: T4, PI3Kβ (p110β/p85α) (Homo sapiens, UniProt P42338); experiment: HTRF assay, potency against active PI3Kβ; assay type: biochemical; settings: [ATP]=50 μM, [di-C8-PIP2]=10 μM, 30 min pre-incubation, read-out: PI3Kβ Inhibition
T4 construct: purchased BPS Bioscience (San Diego, Calif.) or Millipore (Billerica, Mass.)
Description: Homogeneous Time Resolved Fluorescence (HTRF) Assay Protocol for Potency Assessment Against the Active Forms of PI3Kα, PI3Kβ, and PI3Kγ
The mechanics of the assay platform are best described by the vendor (Millipore, Billerica, Mass.) on their website at the following URL: www.millipore.com/coa/tech1/74jt4z.
Briefly, Stop solution (Stop A, #33-007 and Stop B, #33-009; 3:1 ratio) and Detection Mix (from DMC, #33-015 with DMA, #33-011 and DMB, #33-013; 18:1:1 ratio) were prepared as recommended by the manufacturer about 2 hrs prior to use. […] Lipid kinase reactions were started with the addition of 5 μL of ATP solution, mixed for 15 sec on a rotary plate shaker and incubated for 30-60 minutes at 25° C. Next, reactions were stopped with a 5 μL addition of Stop solution immediately followed by a 5 μL volume of Detection Mix. […] At the conclusion of each assay, the HTRF ratio from fluorescence emission values for each well was calculated and % Inhibition determined from averaged controls wells (+/−PI3K enzyme). % Inhibition values for each compound were then plotted against inhibitor concentration to estimate IC50 from log [Inhibitor] vs Response, Variable Slope model in GraphPad Prism from GraphPad Software (San Diego, Calif.).

SKOV3 cells = experiment: GI50 determinations in SKOV3 cells; assay type: cell-based; settings: Homo sapiens, SK-OV-3; SKOV3 cells, 96 hours, Cell Titer Glo
Description: GI50 Determinations in SKOV3 Cells
A standard curve ranging from 10,000 to 50,000 cells was set up in a separate plate and allowed to adhere to the plate for 4-6 hours, at which time the plate was developed using Cell Titer-Glow (Promega, Madison, Wis.) according to manufacturer's instructions.
The next morning, 3-fold compound dilutions ranging from 10,000 nM to 40 nM were prepared in Proliferation Media containing 1% DMSO. 20 ul of each dilution was added to the SKOV3 cells plated the previous day resulting in a dose response curve from 1000 nM to 4 nM. The cells were incubated for 96 hours and then developed with Cell Titer Glo.
The cell numbers at the end of the assay were determined using the standard curve generated at the start of the assay. Growth inhibition was calculated using the following formulas and GI50s were determined by plotting the % growth inhibition vs. Log compound concentration in GraphPad.
%growth=100×(T−T0)/(C−T0)
T=Cell Number at end of assay T0=Cell Number at start of assay (5000) C=Number of cells in DMSO controls at end of assay
%growth inhibition=100−%growth

PI3Kα [2] = target: T1, PI3Kα; experiment: Mass spectrometry of intact PI3Kα (Millipore, 14-602), 1 hr incubation; assay type: binding; parameters: purchased Millipore 14-602; settings: 10× fold excess of compound, MALDI
Description: as §1
Target sequence in this assay (P42336 whole entry): as the sequence (P42336 whole entry) above
Target sequence in this assay (P27986 whole entry partner): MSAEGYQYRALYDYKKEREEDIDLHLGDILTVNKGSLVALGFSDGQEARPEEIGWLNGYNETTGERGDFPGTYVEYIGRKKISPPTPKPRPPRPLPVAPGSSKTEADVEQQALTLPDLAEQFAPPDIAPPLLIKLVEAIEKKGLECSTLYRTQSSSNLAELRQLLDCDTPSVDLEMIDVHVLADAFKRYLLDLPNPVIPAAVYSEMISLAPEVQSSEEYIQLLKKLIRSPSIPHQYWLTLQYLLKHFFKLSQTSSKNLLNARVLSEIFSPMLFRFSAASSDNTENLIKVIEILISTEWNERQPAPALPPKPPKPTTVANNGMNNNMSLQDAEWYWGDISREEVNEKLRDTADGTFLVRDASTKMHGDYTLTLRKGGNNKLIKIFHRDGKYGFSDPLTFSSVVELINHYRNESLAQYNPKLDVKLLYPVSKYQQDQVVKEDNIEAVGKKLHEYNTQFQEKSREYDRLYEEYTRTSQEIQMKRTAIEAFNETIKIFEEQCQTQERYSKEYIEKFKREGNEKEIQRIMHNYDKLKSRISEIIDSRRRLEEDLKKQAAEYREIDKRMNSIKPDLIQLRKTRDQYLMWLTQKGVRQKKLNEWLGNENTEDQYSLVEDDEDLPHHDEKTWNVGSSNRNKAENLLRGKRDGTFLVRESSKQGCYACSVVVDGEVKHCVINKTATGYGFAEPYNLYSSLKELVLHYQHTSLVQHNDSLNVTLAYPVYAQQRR
Aliquots (5 μl) of the samples were diluted with 15 μl of 0.2% TFA prior to micro C4 ZipTipping directly onto the MALDI target using Sinapinic acid as the desorption matrix (10 mg/ml in 0.1% TFA:Acetonitrile 50:50).

T2 sequence (P42336 whole entry): as the sequence (P42336 whole entry) above
T2 sequence (P27986 whole entry partner): as the sequence (P27986 whole entry partner) above
T3 sequence (P48736 whole entry): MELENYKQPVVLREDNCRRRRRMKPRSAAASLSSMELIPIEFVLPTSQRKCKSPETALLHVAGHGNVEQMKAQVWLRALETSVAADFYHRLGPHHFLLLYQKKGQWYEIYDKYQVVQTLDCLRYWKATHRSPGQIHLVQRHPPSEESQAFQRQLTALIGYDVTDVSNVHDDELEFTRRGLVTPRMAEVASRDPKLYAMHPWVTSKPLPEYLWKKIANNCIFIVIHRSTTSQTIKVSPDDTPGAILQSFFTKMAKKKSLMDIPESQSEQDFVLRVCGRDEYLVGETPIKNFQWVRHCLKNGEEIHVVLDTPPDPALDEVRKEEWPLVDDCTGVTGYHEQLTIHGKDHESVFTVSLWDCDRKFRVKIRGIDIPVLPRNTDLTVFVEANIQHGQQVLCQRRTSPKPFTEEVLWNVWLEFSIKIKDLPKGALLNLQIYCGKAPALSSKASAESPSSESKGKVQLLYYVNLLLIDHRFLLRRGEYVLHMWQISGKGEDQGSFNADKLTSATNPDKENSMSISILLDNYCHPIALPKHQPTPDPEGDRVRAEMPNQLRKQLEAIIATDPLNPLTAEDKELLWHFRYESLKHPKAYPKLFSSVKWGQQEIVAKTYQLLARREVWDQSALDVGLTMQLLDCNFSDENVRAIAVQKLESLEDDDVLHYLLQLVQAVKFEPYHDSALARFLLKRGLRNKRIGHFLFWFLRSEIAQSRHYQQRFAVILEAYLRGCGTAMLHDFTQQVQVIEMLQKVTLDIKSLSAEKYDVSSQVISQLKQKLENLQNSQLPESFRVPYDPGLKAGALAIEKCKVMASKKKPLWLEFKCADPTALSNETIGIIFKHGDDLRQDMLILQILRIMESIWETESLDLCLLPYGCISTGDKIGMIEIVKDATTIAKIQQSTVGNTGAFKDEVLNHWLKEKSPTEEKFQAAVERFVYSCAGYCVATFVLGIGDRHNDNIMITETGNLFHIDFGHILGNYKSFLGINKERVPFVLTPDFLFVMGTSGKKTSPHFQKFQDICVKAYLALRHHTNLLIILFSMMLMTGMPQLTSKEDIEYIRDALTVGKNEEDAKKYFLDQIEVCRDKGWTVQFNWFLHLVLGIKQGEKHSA
T4 sequence (P42338 whole entry): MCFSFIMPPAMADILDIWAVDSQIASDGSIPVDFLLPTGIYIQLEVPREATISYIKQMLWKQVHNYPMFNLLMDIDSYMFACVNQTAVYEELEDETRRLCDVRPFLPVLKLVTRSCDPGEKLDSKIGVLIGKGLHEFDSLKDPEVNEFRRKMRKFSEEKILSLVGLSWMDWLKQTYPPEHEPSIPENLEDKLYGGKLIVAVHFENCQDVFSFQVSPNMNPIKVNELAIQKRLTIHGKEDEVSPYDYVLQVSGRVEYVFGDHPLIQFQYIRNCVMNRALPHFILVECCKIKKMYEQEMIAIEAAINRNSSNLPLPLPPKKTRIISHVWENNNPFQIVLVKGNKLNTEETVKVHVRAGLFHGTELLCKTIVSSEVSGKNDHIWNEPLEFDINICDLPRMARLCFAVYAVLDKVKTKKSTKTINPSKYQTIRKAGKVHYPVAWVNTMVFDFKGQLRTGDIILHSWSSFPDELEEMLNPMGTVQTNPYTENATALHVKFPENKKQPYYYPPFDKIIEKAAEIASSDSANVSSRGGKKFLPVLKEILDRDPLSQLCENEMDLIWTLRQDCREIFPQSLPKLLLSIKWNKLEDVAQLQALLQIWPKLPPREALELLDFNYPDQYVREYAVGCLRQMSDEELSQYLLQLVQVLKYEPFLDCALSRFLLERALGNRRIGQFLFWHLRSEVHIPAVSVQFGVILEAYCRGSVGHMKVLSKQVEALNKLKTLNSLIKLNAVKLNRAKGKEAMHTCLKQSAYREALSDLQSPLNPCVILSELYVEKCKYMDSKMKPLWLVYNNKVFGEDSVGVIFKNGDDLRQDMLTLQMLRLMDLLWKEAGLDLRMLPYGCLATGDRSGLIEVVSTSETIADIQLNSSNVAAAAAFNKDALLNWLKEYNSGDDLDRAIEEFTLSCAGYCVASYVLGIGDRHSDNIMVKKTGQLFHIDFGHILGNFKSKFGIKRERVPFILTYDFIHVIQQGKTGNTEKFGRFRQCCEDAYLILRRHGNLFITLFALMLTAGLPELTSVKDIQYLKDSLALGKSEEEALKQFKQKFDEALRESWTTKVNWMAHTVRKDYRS
T4 sequence (P27986 whole entry partner): as the sequence (P27986 whole entry partner) above

SMILES	covalent modification of PI3Kα (PI3Kα [1])	IC50 (PI3Kα (p110α/p85α)) [nM]	IC50 (PI3Kγ (p120γ)) [nM]	EC50 (Phospho-Akt(Ser473)) [nM]	covalent modification of PI3Kα (PI3Kα [2])	also measured
C/C=C/C(=O)CCC(=O)NCC(=O)N1CCN(Cc2cc3nc(-c4cccc5[nH]ncc45)nc(N4CCOCC4)c3s2)CC1 [II-a-16, (E)-N-(2-(4-((2-(1H-indazol-4-yl)-4-morpholinothieno[3,2-d]pyrimidin-6-yl)methyl)piperazin-1-yl)-2-oxoethyl)-4-oxohept-5-enamide]	completely modify	< 10	> 1000			EC50 (PI3K): 100 to 500 nM; times more potent than its reversible counterpart II^R-a-16 (PI3Kα (p110α/p85α); PI3Kα HTRF assay): about 35 times
C=C(C)C(=O)CCC(=O)NCC(=O)N1CCN(Cc2cc3nc(-c4cccc5[nH]ncc45)nc(N4CCOCC4)c3s2)CC1 [II-a-33, N-(2-(4-((2-(1H-indazol-4-yl)-4-morpholinothieno[3,2-d]pyrimidin-6-yl)methyl)piperazin-1-yl)-2-oxoethyl)-5-methyl-4-oxohex-5-enamide]	completely modify	10 to 100	> 1000			EC50 (PI3K): 20 to 100 nM
C/C=C/C(=O)CCC(=O)NCC(=O)N1CCN(Cc2cc3nc(-c4cccc(O)c4)nc(N4CCOCC4)c3s2)CC1 [II-a-37, (E)-N-(2-(4-((2-(3-hydroxyphenyl)-4-morpholinothieno[3,2-d]pyrimidin-6-yl)methyl)piperazin-1-yl)-2-oxoethyl)-4-oxohept-5-enamide]	completely modify	< 10	> 1000	100 to 1000		EC50 (PI3K): 20 to 100 nM
C/C=C/C(=O)CCC(=O)N1CC=C(c2cc3nc(-c4cccc(O)c4)nc(N4CCOCC4)c3s2)CC1 [II-a-45, (E)-1-(4-(2-(3-hydroxyphenyl)-4-morpholinothieno[3,2-d]pyrimidin-6-yl)-5,6-dihydropyridin-1(2H)-yl)hept-5-ene-1,4-dione]	covalent modification; also recorded: complete modification	< 10	100 to 1000	≤ 10		positive mass shift of PI3Kα (PI3Kα [1]): 563 Da; EC50 (PI3K): 100 to 500 nM
CC(C)/C=C/C(=O)CCC(=O)N1CCN(Cc2cc3nc(-c4cccc5[nH]ncc45)nc(N4CCOCC4)c3s2)CC1 [II-a-54, (E)-1-(4-((2-(1H-indazol-4-yl)-4-morpholinothieno[3,2-d]pyrimidin-6-yl)methyl)piperazin-1-yl)-7-methyloct-5-ene-1,4-dione]	completely modify	10 to 100	> 1000			
CC(C)=CC(=O)CCCC(=O)N1CC=C(c2cc3nc(-c4cnc(N)nc4)nc(C4=CCOCC4)c3s2)CC1 [II-a-169]		10 to 100	100 to 1000			IC50 (PI3Kβ (p110β/p85α)): > 1000 nM
C=CC(=O)Nc1ccc(C(=O)N2CC=C(c3cc4nc(-c5cnc(N)nc5)cc(N5CCOCC5)c4s3)CC2)cc1 [II-g-2, N-(4-(4-(5-(2-aminopyrimidin-5-yl)-7-morpholinothieno[3,2-b]pyridin-2-yl)-1,2,3,6-tetrahydropyridine-1-carbonyl)phenyl)acrylamide]		100 to 1000	100 to 1000	≤ 10		GI50 (SKOV3 cells): 100 to 1000 nM
C=CC(=O)Nc1ccc(CC(=O)N2CCC(n3ncc4c(N5CCOCC5)nc(-c5ccc(NC(=O)NC)cc5)nc43)CC2)cc1 [VII-9, N-(4-(2-(4-(6-(4-(3-methylureido)phenyl)-4-morpholino-1H-pyrazolo[3,4-d]pyrimidin-1-yl)piperidin-1-yl)-2-oxoethyl)phenyl)acrylamide]		100 to 1000		100 to 1000		GI50 (SKOV3 cells): 100 to 1000 nM
CC(C)=CC(=O)c1ccc(CCNC(=O)c2cc(-c3cnc(N)nc3C)nc(N3CCOCC3)c2)cc1 [XII-15, 2-(2-amino-4-methylpyrimidin-5-yl)-N-(4-(3-methylbut-2-enoyl)phenethyl)-6-morpholinoisonicotinamide]		100 to 1000			similarly modify	
CC(C)=CC(=O)CCc1ccc(C#Cc2cc(-c3cnc(N)nc3C)nc(N3CCOCC3)c2)cc1 [XII-18, 1-(4-((2-(2-amino-4-methylpyrimidin-5-yl)-6-morpholinopyridin-4-yl)ethynyl)phenyl)-5-methylhex-4-en-3-one]		> 1000			similarly modify	
CC(C)=CC(=O)CCC(=O)N1CC2(CCN(c3cc(-c4cnc(N)nc4)nc(N4CCOCC4)c3)CC2)C1 [XII-42, 1-(7-(2-(2-aminopyrimidin-5-yl)-6-morpholinopyridin-4-yl)-2,7-diazaspiro[3.5]nonan-2-yl)-6-methylhept-5-ene-1,4-dione]		> 1000		100 to 1000	similarly modify	
C=CC(=O)Nc1ccc(CC(=O)N2CC=C(c3cc(-c4cnc(N)nc4)nc(N4CCOCC4)c3)CC2)cc1 [XII-51, N-(4-(2-(4-(2-(2-aminopyrimidin-5-yl)-6-morpholinopyridin-4-yl)-5,6-dihydropyridin-1(2H)-yl)-2-oxoethyl)phenyl)acrylamide]		10 to 100		10 to 100	similarly modify	
C=CC(=O)Nc1ccc(C(=O)N2CCC3(CC2)CN(c2cc(-c4cnc(N)nc4)nc(N4CCOCC4)c2)C3)cc1 [XII-52, N-(4-(2-(2-(2-aminopyrimidin-5-yl)-6-morpholinopyridin-4-yl)-2,7-diazaspiro[3.5]nonane-7-carbonyl)phenyl)acrylamide]		100 to 1000		100 to 1000	similarly modify	
C=CC(=O)Nc1ccc(CC(=O)N2CCN(c3cc(-c4cnc(N)nc4)nc(N4CCOCC4)c3)CC2)cc1 [XII-54]		100 to 1000		100 to 1000	covalent modification	mass shift of PI3Kα (PI3Kα [2]): 542 Da; mass shift of PI3Kα, per cent in brackets (PI3Kα [2]): 103%
